Source: US12281080B2, “Quinoline-based compounds and methods of inhibiting CDK8/19” (University of South Carolina, priority 2018, dated 2025)

Legend:
PIM1 = PIM1 (Homo sapiens (Human), UniProt P11309); experiment: KINOMEscan scanMAX; type: binding; conditions: 2000 nM; read-out: Percent Control
[1] = biological target: ABL1(H396P)-phosphorylated (Homo sapiens (Human), UniProt P00519, H396P); experiment: KINOMEscan scanMAX; type: binding; conditions: 2000 nM; read-out: Percent Control
EPHA7 = EPHA7 (Homo sapiens (Human), UniProt Q15375); experiment: KINOMEscan scanMAX; type: binding; conditions: 2000 nM; read-out: Percent Control
PFTAIRE2 (CDK15) = PFTAIRE2 (CDK15) (Homo sapiens (Human), UniProt Q96Q40); experiment: KINOMEscan scanMAX; type: binding; conditions: 2000 nM; read-out: Percent Control
ALK(C1156Y) = ALK(C1156Y) (Homo sapiens (Human), UniProt Q9UM73, C1156Y); experiment: KINOMEscan scanMAX; type: binding; conditions: 2000 nM; read-out: Percent Control
MYC = experiment: QPCR gene expression in TNFα-treated HEK293 cells; type: cell-based, human; conditions: Homo sapiens, HEK293; range stated for all three genes
Description: (§1) Two types of cell-based assays for CDK8/19 inhibition were used to test the efficacy of quinoline quinolone compounds described herein (FIG. 3A). The first cell-based assay, which measures the effects of CDK8/19 inhibitors on RNA levels of CDK8/19-regulated genes by quantitative reverse transcription-PCR (QPCR), is based on the ability of CDK8/19 inhibitors to suppress the induction of NFκB-inducible genes by TNFα and to inhibit basal expression of MYC in human embryonic kidney (HEK) 293 cells, as previously described. In this assay, 293 cells growing in DMEM (High-glucose) media supplemented with 10% FBS are pre-treated with the tested inhibitors or DMSO control for 1 hour and then treated with 10 ng/mL TNFα (an activator of NFκB) for 2 hours (in the presence or absence of the tested inhibitors), followed by RNA extraction and QPCR analysis of RNA expression of specific genes conducted as described (Chen et al., ibid), using housekeeping genes RPL13A and GAPDH as normalization standards. […] All the quinoline derivatives inhibited the expression of all three genes.

IL8 = experiment: QPCR gene expression in TNFα-treated HEK293 cells; type: cell-based, human; conditions: Homo sapiens, HEK293; range stated for all three genes
Description: as §1

CXCL1 = experiment: QPCR gene expression in TNFα-treated HEK293 cells; type: cell-based, human; conditions: Homo sapiens, HEK293; range stated for all three genes
Description: as §1

PIK3CA(E542K) = PIK3CA(E542K) (Homo sapiens (Human), UniProt P42336, E542K); experiment: KINOMEscan scanMAX; type: binding; conditions: 2000 nM; read-out: Percent Control
DRAK2 (STK17B) = DRAK2 (STK17B) (Homo sapiens (Human), UniProt O94768); experiment: KINOMEscan scanMAX; type: binding; conditions: 2000 nM; read-out: Percent Control
Sequence of DRAK2 (STK17B) (O94768 whole entry): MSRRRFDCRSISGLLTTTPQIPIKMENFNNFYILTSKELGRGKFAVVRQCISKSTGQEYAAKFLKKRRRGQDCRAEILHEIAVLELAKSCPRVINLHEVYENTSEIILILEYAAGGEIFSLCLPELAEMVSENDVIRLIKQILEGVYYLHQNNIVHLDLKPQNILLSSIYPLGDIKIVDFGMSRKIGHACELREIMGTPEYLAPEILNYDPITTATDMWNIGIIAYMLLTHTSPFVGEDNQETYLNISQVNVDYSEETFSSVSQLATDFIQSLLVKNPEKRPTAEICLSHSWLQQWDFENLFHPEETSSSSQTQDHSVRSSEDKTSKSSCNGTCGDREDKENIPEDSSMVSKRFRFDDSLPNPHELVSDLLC

[2] = biological target: PKNB(M.tuberculosis) (pknB) (Mycobacterium tuberculosis (strain ATCC 25618 / H37Rv), UniProt P9WI81); experiment: KINOMEscan scanMAX; type: binding; conditions: 2000 nM; read-out: Percent Control
PRKCQ = PRKCQ (Homo sapiens (Human), UniProt Q04759); experiment: KINOMEscan scanMAX; type: binding; conditions: 2000 nM; read-out: Percent Control
Sequence of PRKCQ (Q04759 whole entry): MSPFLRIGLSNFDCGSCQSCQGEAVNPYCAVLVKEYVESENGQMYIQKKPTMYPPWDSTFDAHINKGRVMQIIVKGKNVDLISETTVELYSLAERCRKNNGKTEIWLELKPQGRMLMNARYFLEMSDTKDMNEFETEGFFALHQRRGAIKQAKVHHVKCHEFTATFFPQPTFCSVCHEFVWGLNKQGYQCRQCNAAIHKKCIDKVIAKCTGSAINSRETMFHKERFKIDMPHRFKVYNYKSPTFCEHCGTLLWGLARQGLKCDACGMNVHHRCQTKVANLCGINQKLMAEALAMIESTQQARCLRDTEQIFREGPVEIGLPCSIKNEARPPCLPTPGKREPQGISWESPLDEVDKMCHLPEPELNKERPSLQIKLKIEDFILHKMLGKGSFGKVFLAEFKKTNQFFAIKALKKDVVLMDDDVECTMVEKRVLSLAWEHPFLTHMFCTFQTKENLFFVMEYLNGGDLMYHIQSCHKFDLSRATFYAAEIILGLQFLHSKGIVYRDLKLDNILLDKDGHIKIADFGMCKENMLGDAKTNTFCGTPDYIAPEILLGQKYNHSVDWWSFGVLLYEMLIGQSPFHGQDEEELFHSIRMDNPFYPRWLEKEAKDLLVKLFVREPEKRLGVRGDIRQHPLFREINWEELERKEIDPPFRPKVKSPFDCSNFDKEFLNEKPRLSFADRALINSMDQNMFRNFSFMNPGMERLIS

VRK2 = VRK2 (Homo sapiens (Human), UniProt Q86Y07); experiment: KINOMEscan scanMAX; type: binding; conditions: 2000 nM; read-out: Percent Control
Sequence of VRK2 (Q86Y07 whole entry): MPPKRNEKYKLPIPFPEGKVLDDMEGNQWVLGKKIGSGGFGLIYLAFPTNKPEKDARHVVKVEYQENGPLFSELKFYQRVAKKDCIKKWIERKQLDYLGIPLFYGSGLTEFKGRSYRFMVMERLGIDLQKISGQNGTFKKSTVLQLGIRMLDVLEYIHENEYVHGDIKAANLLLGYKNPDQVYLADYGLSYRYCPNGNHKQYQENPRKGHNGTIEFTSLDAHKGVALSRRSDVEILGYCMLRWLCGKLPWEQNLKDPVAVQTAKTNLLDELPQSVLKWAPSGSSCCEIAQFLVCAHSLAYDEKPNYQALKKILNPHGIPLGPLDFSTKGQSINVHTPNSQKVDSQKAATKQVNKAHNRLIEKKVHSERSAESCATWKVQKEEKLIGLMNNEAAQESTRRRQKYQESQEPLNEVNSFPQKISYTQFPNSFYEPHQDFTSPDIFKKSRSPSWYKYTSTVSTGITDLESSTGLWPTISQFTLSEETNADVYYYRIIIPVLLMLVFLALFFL

CIT = CIT (Homo sapiens (Human), UniProt O14578); experiment: KINOMEscan scanMAX; type: binding; conditions: 2000 nM; read-out: Percent Control
DLK (MAP3K12) = DLK (MAP3K12) (Homo sapiens (Human), UniProt Q12852); experiment: KINOMEscan scanMAX; type: binding; conditions: 2000 nM; read-out: Percent Control
Sequence of DLK (MAP3K12) (Q12852 whole entry): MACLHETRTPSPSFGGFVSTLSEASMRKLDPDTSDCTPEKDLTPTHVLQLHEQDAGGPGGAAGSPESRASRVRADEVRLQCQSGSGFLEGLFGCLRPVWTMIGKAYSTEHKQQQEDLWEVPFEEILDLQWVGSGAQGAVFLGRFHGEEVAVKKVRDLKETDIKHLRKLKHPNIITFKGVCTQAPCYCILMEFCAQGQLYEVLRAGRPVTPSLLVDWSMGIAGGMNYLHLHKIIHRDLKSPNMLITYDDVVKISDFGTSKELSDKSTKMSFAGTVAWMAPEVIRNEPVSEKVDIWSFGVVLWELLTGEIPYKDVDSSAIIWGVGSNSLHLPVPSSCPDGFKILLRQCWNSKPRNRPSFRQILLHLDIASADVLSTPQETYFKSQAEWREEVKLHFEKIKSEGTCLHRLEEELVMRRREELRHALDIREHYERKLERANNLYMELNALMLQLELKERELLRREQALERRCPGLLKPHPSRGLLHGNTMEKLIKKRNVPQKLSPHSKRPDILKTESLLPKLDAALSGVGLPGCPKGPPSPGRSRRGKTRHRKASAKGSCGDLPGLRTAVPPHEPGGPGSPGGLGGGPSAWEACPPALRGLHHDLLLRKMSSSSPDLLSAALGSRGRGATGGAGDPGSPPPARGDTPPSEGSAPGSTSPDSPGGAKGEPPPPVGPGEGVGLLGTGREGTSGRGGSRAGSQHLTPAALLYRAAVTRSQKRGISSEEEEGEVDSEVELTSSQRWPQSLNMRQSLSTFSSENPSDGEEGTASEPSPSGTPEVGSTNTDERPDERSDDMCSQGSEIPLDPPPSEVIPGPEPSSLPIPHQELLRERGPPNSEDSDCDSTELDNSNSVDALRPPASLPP

NEK11 = NEK11 (Homo sapiens (Human), UniProt Q8NG66); experiment: KINOMEscan scanMAX; type: binding; conditions: 2000 nM; read-out: Percent Control
Sequence of NEK11 (Q8NG66 whole entry): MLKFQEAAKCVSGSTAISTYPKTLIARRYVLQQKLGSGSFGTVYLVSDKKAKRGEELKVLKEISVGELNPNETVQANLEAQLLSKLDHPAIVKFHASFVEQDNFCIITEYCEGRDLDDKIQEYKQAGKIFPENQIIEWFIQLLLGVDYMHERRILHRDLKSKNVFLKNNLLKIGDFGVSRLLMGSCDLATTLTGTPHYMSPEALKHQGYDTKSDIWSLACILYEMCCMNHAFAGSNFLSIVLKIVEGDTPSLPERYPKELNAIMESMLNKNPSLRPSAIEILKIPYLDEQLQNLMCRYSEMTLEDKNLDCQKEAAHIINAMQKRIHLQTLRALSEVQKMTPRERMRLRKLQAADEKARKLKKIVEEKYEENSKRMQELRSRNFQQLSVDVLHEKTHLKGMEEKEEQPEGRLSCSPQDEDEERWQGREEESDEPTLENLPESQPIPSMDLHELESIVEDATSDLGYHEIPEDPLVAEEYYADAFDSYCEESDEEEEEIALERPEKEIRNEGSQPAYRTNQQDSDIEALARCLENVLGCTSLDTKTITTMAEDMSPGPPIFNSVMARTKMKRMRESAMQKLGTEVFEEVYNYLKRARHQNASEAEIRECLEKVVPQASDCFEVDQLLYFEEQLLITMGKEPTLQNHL

FLT3(D835V) = FLT3(D835V) (Homo sapiens (Human), UniProt P36888, D835V); experiment: KINOMEscan scanMAX; type: binding; conditions: 2000 nM; read-out: Percent Control
CDK3 = CDK3 (Homo sapiens (Human), UniProt Q00526); experiment: KINOMEscan scanMAX; type: binding; conditions: 2000 nM; read-out: Percent Control
Sequence of CDK3 (Q00526 whole entry): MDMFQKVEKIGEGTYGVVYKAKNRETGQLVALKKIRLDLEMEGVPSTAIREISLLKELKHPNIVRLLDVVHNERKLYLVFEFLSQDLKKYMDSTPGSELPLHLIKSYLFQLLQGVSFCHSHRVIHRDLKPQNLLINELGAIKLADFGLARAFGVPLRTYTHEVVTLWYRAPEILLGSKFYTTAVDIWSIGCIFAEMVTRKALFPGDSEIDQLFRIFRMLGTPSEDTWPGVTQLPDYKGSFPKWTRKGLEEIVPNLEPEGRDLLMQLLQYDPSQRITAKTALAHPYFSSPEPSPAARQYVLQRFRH

[3] = biological target: RPS6KA4(Kin.Dom.1-N-terminal) (Homo sapiens (Human), UniProt O75676); experiment: KINOMEscan scanMAX; type: binding; conditions: 2000 nM; read-out: Percent Control
Sequence of RPS6KA4(Kin.Dom.1-N-terminal) (O75676 33-301): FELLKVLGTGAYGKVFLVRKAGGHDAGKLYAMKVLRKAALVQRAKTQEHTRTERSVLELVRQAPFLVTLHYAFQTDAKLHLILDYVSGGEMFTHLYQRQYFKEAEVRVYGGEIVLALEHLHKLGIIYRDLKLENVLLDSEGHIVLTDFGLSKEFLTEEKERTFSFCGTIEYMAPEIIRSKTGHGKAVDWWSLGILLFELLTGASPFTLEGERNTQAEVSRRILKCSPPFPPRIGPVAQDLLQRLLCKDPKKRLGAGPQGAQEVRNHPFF

PIK3C2B = PIK3C2B (Homo sapiens (Human), UniProt O00750); experiment: KINOMEscan scanMAX; type: binding; conditions: 2000 nM; read-out: Percent Control
KIT(V559D, V654A) = KIT(V559D, V654A) (Homo sapiens (Human), UniProt P10721, V559D/V654A); experiment: KINOMEscan scanMAX; type: binding; conditions: 2000 nM; read-out: Percent Control
TAOK3 = TAOK3 (Homo sapiens (Human), UniProt Q9H2K8); experiment: KINOMEscan scanMAX; type: binding; conditions: 2000 nM; read-out: Percent Control
PKMYT1 = PKMYT1 (Homo sapiens (Human), UniProt Q99640); experiment: KINOMEscan scanMAX; type: binding; conditions: 2000 nM; read-out: Percent Control
Sequence of PKMYT1 (Q99640 whole entry): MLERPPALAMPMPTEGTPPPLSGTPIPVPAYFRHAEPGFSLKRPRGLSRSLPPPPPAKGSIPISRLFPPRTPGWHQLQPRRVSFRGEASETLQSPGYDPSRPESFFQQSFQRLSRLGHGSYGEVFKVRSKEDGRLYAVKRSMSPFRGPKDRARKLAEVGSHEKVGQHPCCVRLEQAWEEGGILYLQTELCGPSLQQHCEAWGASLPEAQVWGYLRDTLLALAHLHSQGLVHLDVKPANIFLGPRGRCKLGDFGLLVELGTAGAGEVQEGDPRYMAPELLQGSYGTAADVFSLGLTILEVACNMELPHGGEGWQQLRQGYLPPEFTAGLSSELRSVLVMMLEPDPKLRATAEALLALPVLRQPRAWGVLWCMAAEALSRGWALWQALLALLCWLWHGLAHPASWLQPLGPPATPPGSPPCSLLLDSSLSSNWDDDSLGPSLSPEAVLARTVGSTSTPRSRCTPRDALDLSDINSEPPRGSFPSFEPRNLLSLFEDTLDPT

EGFR(L747-T751del, Sins) = EGFR(L747-T751del, Sins) (Homo sapiens (Human), UniProt P00533, DEL747-751/INS746S); experiment: KINOMEscan scanMAX; type: binding; conditions: 2000 nM; read-out: Percent Control
Sequence of EGFR(L747-T751del, Sins) (P00533 other isoform, or with tags, fused parts or gaps del 1-668/ins S behind 746/del 747-751/del 1012-1210 limits assumed): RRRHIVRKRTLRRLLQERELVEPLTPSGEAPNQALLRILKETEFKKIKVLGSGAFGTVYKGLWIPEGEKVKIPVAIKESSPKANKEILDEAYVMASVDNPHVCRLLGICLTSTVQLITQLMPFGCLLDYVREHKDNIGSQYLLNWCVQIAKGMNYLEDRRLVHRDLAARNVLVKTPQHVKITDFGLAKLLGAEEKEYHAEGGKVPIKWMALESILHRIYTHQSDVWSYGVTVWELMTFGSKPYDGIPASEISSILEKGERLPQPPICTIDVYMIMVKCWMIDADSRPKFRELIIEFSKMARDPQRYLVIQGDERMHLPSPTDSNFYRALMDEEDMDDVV

[4] = Serum and tumor PK at study endpoint, C4-2 xenografts; type: in vivo, mice; conditions: 6-7 hours post last dose, 40 mg/kg orally daily for 4 days
Experimental: CDK8/19 inhibition decreases the expression of certain androgen-receptor (AR) inducible genes including PSA, the most common marker of prostate cancer, and the growth of castration-refractory prostate cancers (CRPC). The in vivo effects of Senexin C on PSA expression by C4-2 cells were analyzed after treatment of male NcrNU mice bearing C4-2 xenografts (grouped based on tumor sizes) for 4 days at 40 mg/kg administered orally daily.

INSR = INSR (Homo sapiens (Human), UniProt P06213); experiment: KINOMEscan scanMAX; type: binding; conditions: 2000 nM; read-out: Percent Control
EPHB1 = EPHB1 (Homo sapiens (Human), UniProt P54762); experiment: KINOMEscan scanMAX; type: binding; conditions: 2000 nM; read-out: Percent Control
SRMS = SRMS (Homo sapiens (Human), UniProt Q9H3Y6); experiment: KINOMEscan scanMAX; type: binding; conditions: 2000 nM; read-out: Percent Control
DAPK2 = DAPK2 (Homo sapiens (Human), UniProt Q9UIK4); experiment: KINOMEscan scanMAX; type: binding; conditions: 2000 nM; read-out: Percent Control
Sequence of DAPK2 (Q9UIK4 whole entry): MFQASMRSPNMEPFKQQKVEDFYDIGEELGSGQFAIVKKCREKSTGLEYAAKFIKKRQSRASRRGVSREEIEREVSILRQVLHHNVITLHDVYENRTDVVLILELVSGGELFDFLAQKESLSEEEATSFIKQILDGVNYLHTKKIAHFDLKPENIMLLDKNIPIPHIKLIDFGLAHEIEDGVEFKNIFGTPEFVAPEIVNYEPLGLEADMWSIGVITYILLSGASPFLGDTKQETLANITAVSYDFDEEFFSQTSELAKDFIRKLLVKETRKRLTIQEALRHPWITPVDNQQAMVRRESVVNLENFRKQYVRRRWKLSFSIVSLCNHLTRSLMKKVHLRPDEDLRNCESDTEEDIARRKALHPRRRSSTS

LRRK2 = LRRK2 (Homo sapiens (Human), UniProt Q5S007); experiment: KINOMEscan scanMAX; type: binding; conditions: 2000 nM; read-out: Percent Control
PKN1 = PKN1 (Homo sapiens (Human), UniProt Q16512); experiment: KINOMEscan scanMAX; type: binding; conditions: 2000 nM; read-out: Percent Control

## CN1CCN(C(=O)c2ccc3cc(CCNc4ccnc5ccc(C#N)cc45)ccc3c2)CC1 [compound 6148, 4-((2-(6-(4-methylpiperazine-1-carbonyl)naphthalen-2-yl)ethyl)amino)quinoline-6-carbonitrile]
PIM1
  remaining binding at 2 µM: 62%
[1]
  remaining binding at 2 µM: 81%
EPHA7
  remaining binding at 2 µM: 91%
PFTAIRE2 (CDK15)
  remaining binding at 2 µM: 100%
ALK(C1156Y)
  remaining binding at 2 µM: 83%
MYC
  IC50: 25 to 35 nM
IL8
  IC50: 25 to 35 nM
CXCL1
  IC50: 25 to 35 nM
PIK3CA(E542K)
  remaining binding at 2 µM: 55%
DRAK2 (STK17B)
  remaining binding at 2 µM: 87%
[2]
  remaining binding at 2 µM: 93%
PRKCQ
  remaining binding at 2 µM: 100%
VRK2
  remaining binding at 2 µM: 58%
CIT
  remaining binding at 2 µM: 48%
DLK (MAP3K12)
  remaining binding at 2 µM: 68%
NEK11
  remaining binding at 2 µM: 60%
FLT3(D835V)
  remaining binding at 2 µM: 67%
CDK3
  remaining binding at 2 µM: 86%
[3]
  remaining binding at 2 µM: 100%
PIK3C2B
  remaining binding at 2 µM: 80%
KIT(V559D, V654A)
  remaining binding at 2 µM: 89%
TAOK3
  remaining binding at 2 µM: 79%
PKMYT1
  remaining binding at 2 µM: 100%
EGFR(L747-T751del, Sins)
  remaining binding at 2 µM: 74%
[4]
  Drug concentration in tumor tissues vs serum: higher Senexin C drug concentration in tumor tissues
INSR
  remaining binding at 2 µM: 93%
EPHB1
  remaining binding at 2 µM: 92%
SRMS
  remaining binding at 2 µM: 75%
DAPK2
  remaining binding at 2 µM: 100%
LRRK2
  remaining binding at 2 µM: 85%
PKN1
  remaining binding at 2 µM: 100%
